Measured values as given in US20260217672A1, “BENZAMIDE COMPOUNDS FOR TREATMENT OF BACTERIAL INFECTIONS” (Hoffmann-La Roche Inc., priority 2022, published 2026).
Values after ≈ are worked out from the molar mass of the structure shown.

Assays:
[1] = test system: Escherichia coli ATCC 25922; assay: Minimal Inhibitory Concentration (MIC) broth dilution assay; format: cell-based; conditions: ATCC25922, 20 h, read-out: MIC Escherichia coli ATCC 25922
Procedure: (§1) The antibacterial activity of the compounds of the present invention was evaluated against the commonly used quality control strain Escherichia coli ATCC 25922 and the rifampin-resistant mutant strain Klebsiella pneumonia ATCC 43816. Both were originally derived from human clinical samples and are available from ATCC (American Type Culture Collection). The in vitro potency of compounds to inhibit Escherichia coli (ATCC 25922) and Klebsiella pneumonia (ATCC 43816) growth was assessed by the MIC (Minimal Inhibitory Concentration) broth dilution method. Specifically compound dilutions were prepared from 10 mM DMSO stock solutions as follows: i) serial 2-fold dilution in 20 μL DMSO were prepared in a master plate (Greiner, Cat No: 651201), ii) 180 μL sterile distilled water was added to each aliquot and iii) 10 μL diluted compounds were transferred into a new assay plate (Costar, 3599).
(§2) Vials of each test microorganisms were maintained frozen in the vapor phase of a liquid nitrogen freezer. Single-use frozen vials of the two strains Escherichia coli ATCC 25922 (KWIKSTIK, 0335K) and Klebsiella pneumonia ATCC 43816, with predetermined CFU/mL, were taken out from the freezer, thawed at room temperature, and diluted in Cation-Adjusted Mueller Hinton Broth (CAMHB) to achieve a final inoculum of 5×10^5 CFU/mL. 90 μL bacteria containing broth was dispensed to the assay plate containing the pre-dispensed compound dilutions and mixed by pipetting 5 times.
(§3) Then the assay plates were incubated for 20 hours at 35° C. in ambient air. Following incubation, the MIC ([…]), the lowest concentration of drug that inhibits visible growth of the microorganism was read with the help of a magnification mirror and recorded.

[2] = test system: Klebsiella pneumonia ATCC 43816; assay: as above; format: cell-based; conditions: Klebsiella pneumoniae, ATCC43816, 20 h, read-out: MIC Klebsiella pneumoniae ATCC43816
Procedure: as §1, §2, §3

Compound	MIC [1]	MIC [2]
O=C(Nc1ccc(S(=O)(=O)N2CCN(c3cc(C(F)(F)F)cc(Cl)n3)CC2)cc1)c1cccc(N2C[C@H]3CN[C@H]3C2)c1 (stereo in doubt) [Example 052, N-[4-[4-[6-Chloro-4-(trifluoromethyl)-2-pyridyl]piperazin-1-yl]sulfonylphenyl]-3-[3,6-diazabicyclo[3.2.0]heptan-3-yl]benzamide]	1.1 µg/mL (≈ 1.77 µM)	2.3 µg/mL (≈ 3.7 µM)
NCCC1CCCN1Cc1ccc(C(=O)Nc2ccc(S(=O)(=O)N3CCN(c4cc(C(F)(F)F)cc(Cl)n4)CC3)cc2)cc1 (stereo in doubt) [Example 072, N-[4-[4-[6-chloro-4-(trifluoromethyl)-2-pyridyl]piperazin-1-yl]sulfonylphenyl]-4-[[(2S)-2-(2-aminoethyl)pyrrolidin-1-yl]methyl]benzamide]	1 µg/mL (≈ 1.54 µM)	2 µg/mL (≈ 3.07 µM)
NCCCNCc1ccc(C(=O)Nc2ccc(S(=O)(=O)N3CCN(c4cc(C(F)(F)F)ccn4)CC3)cc2)cc1 [Example 002, 4-[(3-Aminopropylamino)methyl]-N-[4-[4-[4-(trifluoromethyl)-2-pyridyl]piperazin-1-yl]sulfonylphenyl]benzamide]	1.8 µg/mL (≈ 3.12 µM)	5.4 µg/mL (≈ 9.36 µM)
NCCCNCc1ccc(C(=O)Nc2ccc(S(=O)(=O)N3CCN(c4cc(C(F)(F)F)c(Cl)cn4)CC3)cc2)cc1 [Example 003, 4-[(3-Aminopropylamino)methyl]-N-[4-[4-[5-chloro-4-(trifluoromethyl)-2-pyridyl]piperazin-1-yl]sulfonylphenyl]benzamide]	1.4 µg/mL (≈ 2.29 µM)	3.8 µg/mL (≈ 6.22 µM)
NCCCNCc1ccc(C(=O)Nc2ccc(S(=O)(=O)N3CCN(c4cc(Cl)cc(C(F)(F)F)c4)CC3)cc2)cc1 [Example 004, 4-[(3-Aminopropylamino)methyl]-N-[4-[4-[3-chloro-5-(trifluoromethyl)phenyl]piperazin-1-yl]sulfonylphenyl]benzamide]	1.9 µg/mL (≈ 3.11 µM)	3.8 µg/mL (≈ 6.23 µM)
NCCCNCc1ccc(C(=O)Nc2ccc(S(=O)(=O)N3CCN(c4cc(C(F)(F)F)nc(Cl)n4)CC3)cc2)cc1 [Example 005, 4-[(3-Aminopropylamino)methyl]-N-[4-[4-[2-chloro-6-(trifluoromethyl)pyrimidin-4-yl]piperazin-1-yl]sulfonylphenyl]benzamide]	1.9 µg/mL (≈ 3.1 µM)	7.7 µg/mL (≈ 12.6 µM)
NCCCNCc1ccc(C(=O)Nc2ccc(S(=O)(=O)N3CCN(c4cc(C(F)(F)F)nc(N)n4)CC3)cc2)cc1 [Example 006, 4-[(3-Aminopropylamino)methyl]-N-[4-[4-[2-amino-6-(trifluoromethyl)pyrimidin-4-yl]piperazin-1-yl]sulfonylphenyl]benzamide]	3.7 µg/mL (≈ 6.24 µM)	15 µg/mL (≈ 25.3 µM)
NCCCNCc1ccc(C(=O)Nc2ccc(S(=O)(=O)N3CCN(c4cc(C(F)(F)F)c(C5CC5)cn4)CC3)cc2)cc1 [Example 008, 4-[(3-Aminopropylamino)methyl]-N-[4-[4-[5-cyclopropyl-4-(trifluoromethyl)-2-pyridyl]piperazin-1-yl]sulfonylphenyl]benzamide]	–	7.7 µg/mL (≈ 12.5 µM)
Cc1cnc(N2CCN(S(=O)(=O)c3ccc(NC(=O)c4ccc(CCNCCCN)cc4)cc3)CC2)cc1C(F)(F)F [Example 013, 4-[2-(3-Aminopropylamino)ethyl]-N-[4-[4-[5-methyl-4-(trifluoromethyl)-2-pyridyl]piperazin-1-yl]sulfonylphenyl]benzamide]	0.94 µg/mL (≈ 1.55 µM)	–
O=C1CC(CNCc2cccc(C(=O)Nc3ccc(S(=O)(=O)N4CCN(c5cc(C(F)(F)F)cc(Cl)n5)CC4)cc3)c2)CN1 (stereo not drawn) [Example 085, N-[4-[4-[6-chloro-4-(trifluoromethyl)-2-pyridyl]piperazin-1-yl]sulfonylphenyl]-3-[[(5-oxopyrrolidin-3-yl)methylamino]methyl]benzamide]	1.2 µg/mL (≈ 1.84 µM)	–
CN(C)C(=O)CCNCc1cccc(C(=O)Nc2ccc(S(=O)(=O)N3CCN(c4cc(C(F)(F)F)cc(Cl)n4)CC3)cc2)c1 [Example 086, N-[4-[4-[6-chloro-4-(trifluoromethyl)-2-pyridyl]piperazin-1-yl]sulfonylphenyl]-3-[[[3-(dimethylamino)-3-oxo-propyl]amino]methyl]benzamide]	2.4 µg/mL (≈ 3.67 µM)	–
